From patent US20040019092A1, “Non-peptide somatostatin receptor ligands” (priority 2001, published 2004)
Several values for one entry are separate records, joined by “and”; a condition that tells them apart may be missing. Equal values may be shown once.

Columns and labels:
GH secretion [1] = assay: GH secretion in vivo, rat, subcutaneous application, 1 h (basal); settings: rat, basal GH secretion, 1 h after subcutaneous application
Procedure: (§1) Animals, anesthesia: Male rats of a Sprague Dawley strain (Ico:OFA-SD, Iffa-Credo, F-Lyon) of 200-300 g body weight were used. They were kept under standardized conditions and were anesthetized with pentobarbital-sodium (Siegfried, CH Zofingen), 60 mg/kg i.p. for subcutaneous and intraduodenal applications. Animals designed for an infusion experiment were anesthetized with urethane (Siegfried, CH Zofingen), 1.2 g/kg i.p.
(§2) Compounds: The compounds were dissolved, optionally with the aid of one or more of the following adjuncts:
(§3) Stock solutions of the compounds were prepared in water with the addition of the necessary adjunct(s). Further dilutions were prepared allowing 5 mL/kg for subcutaneous application, 2 mL for intraduodenal (i.d.) application or 4.5 mL/kg for intravenous infusion. The solutions for the intravenous application/infusion were made isotonic by addition of glucose to a final concentration of 5%.
(§4) Applications were made, or, in the case of infusion, started, approximately 10 minutes after induction of anesthesia. No further treatment followed subcutaneous or intraduodenal application. Ten, twenty-five and fifty-five minutes after start of the intravenous infusion the GH secretion was stimulated with repeated intravenous injections of the potent GHRH analog, D-Ala2 GHRH1-29NH2, 1 μg/kg.
(§5) One hour after subcutaneous or intraduodenal application of the compounds, blood was collected from the trunk after decapitation. In the case of application by infusion, 5 minutes after each application of GHRH, a blood sample of 0.8 mL was taken from a V. jugularis and mixed with EDTA (Eppendorf tubes TOM14, Milian, CH Geneva). The blood samples were kept on ice and spun in a cooled centrifuge. The serum or plasma was separated and frozen.
(§6) Statistics: In each experiment, 4-5 animals were used per dose, with 6 to 8 animals as the control group that received the vehicle. The GH serum/plasma levels were averaged, the mean of the treated groups expressed in percent of the control group and the ID50-value for the inhibition of the secretion was determined graphically (log-probit) for each experiment. In most experiments with enteral (intraduodenal) application only 1 dose, 10 mg/kg, was given. […] Only inhibitions between 20 and 80% were considered reliable.
(§7) Two to four experiments were performed. In the case of proper dose response curves, allowing the determination of an ID50 values were averaged logarithmically. In the cases of single dose-experiments, the GH value in percent of control were averaged logarithmically and the ID50 for this value was taken from the table. ID50 values determined at the different time points during the infusion were averaged and this value was included in the tables.

GH secretion [2] = assay: GH secretion in vivo, rat, intraduodenal (enteral) application, 1 h (basal); settings: for GH vivo i.d. 1 h ID50: basal GH secretion, 1 h after intraduodenal application, mostly approximate ID50 from single 10 mg/kg dose, Ø = no effect at this dose, > = extrapolated value; for enteral ID50 (GH secretion): enteral (intraduodenal) application
Procedure: as §1, §2, §3, §4, §5, §6, §7

[3] = test system: GHRH stimulated GH secretion; assay: GH secretion in vivo, rat, intravenous infusion with repeated GHRH stimulation; settings: for INFUS. + GHRH ID50 MEAN: Table 4, mean of infusion time points; for INFUS. + GHRH ID50 15′ / INFUS. + GHRH ID50 30′ / INFUS. + GHRH ID50 60′: Table 4, urethan; for GH vivo Inf + GHRH ID50 (mean of time points): urethane, i.v. infusion, GHRH stimulated
Procedure: as §1, §3, §4, §5, §6, §7

[4] = test system: GHRH stimulated GH secretion; assay: GH secretion, rat in urethan anesthesia, subcutaneous + repeated GHRH stimulation; type: in vivo
Procedure: as §4
(§8) With most of these selected compounds additional in vivo experiments in other models (intraduodenal application followed by repeated stimulation of the GH secretion by GHRH, oral application by gavage of unanesthetized, estradiol primed rats) were performed. Table 4 summarizes data obtained for the inhibition of the stimulated GH secretion after subcutaneous, intraduodenal and intravenous application and the inhibitory effects obtained for different time points during intravenous infusion of selected hydantoins.

[5] = test system: GHRH stimulated GH secretion; assay: GH secretion, rat in urethan anesthesia, intraduodenal + repeated GHRH stimulation; type: in vivo; settings: for INTRADUODENAL + GHRH ID50 15′ / INTRADUODENAL + GHRH ID50 30′ / INTRADUODENAL + GHRH ID50 60′ / INTRADUODENAL + GHRH ID50 120′: urethan; for INTRADUODENAL + GHRH ID50 15′ / INTRADUODENAL + GHRH ID50 120′: ø = no effect at this dose
Source text: as §8, with “No further treatment followed subcutaneous or intraduodenal application. […] This value has been determined in a total of four independent experiments. […] However, in further studies compound 47 has also been tested by the enteral route of administration after repeated stimulation of the GH secretion by GHRH. […] With” for “With”, “hydantoins. […] [table]” for “hydantoins.”

[6] = test system: GHRH stimulated GH secretion; assay: GH secretion, rat in urethan anesthesia, i.v. single injection + repeated GHRH stimulation; type: in vivo
GH secretion [7] = assay: Unanesthetized estradiol primed male rats, oral by gavage: GH; type: in vivo, rat; settings: for GH 1 H ID50 / MEAN ID50 (GH and prolactin): estradiol implant male rats, oral by gavage, 1 hour
Procedure: The inhibitory effect of the compounds on GH release may also be examined after oral application to male rats with oestradiol implants. This test is carried out as follows.
A loop (length 50 mmØ3 mm) of silastic with 50 mg of oestradiol is implanted under the dorsal skin of anaesthetized male OFA rats that have a weight of ca. 300 g. At various times (1 to 6 months later), these animals, in a fasted state, are used repeatedly for tests. The test substances are active in this test at doses from 0.1 to 5 mg/kg, when GH level in the blood serum is determined by radio-immunoassay 1 and 2 hours after oral administration.
(§9) Table 5 summarizes the results obtained in the estradiol primed male rats that received the compounds orally by gavage. These rats have stabilized elevated GH plasma levels as well as increased prolactin levels. In contrast to normal untreated rats, who's prolactin secretion is not sensitive to the inhibitory effect of somatostain, in these rats the prolactin secretion is inhibited to a similar degree as the GH secretion. Therefore, the inhibitory effect can be measured on 2 different parameters, GH and prolactin. The mean enteral absorption and activity of the respective compounds are shown.

prolactin secretion = assay: Unanesthetized estradiol primed male rats, oral by gavage: prolactin; type: in vivo, rat; settings: for PROLACT 1 H ID50: estradiol implant male rats, oral by gavage, ø = no effect at this dose
Source text: as §9

[8] = test system: GHRH induced GH secretion in primary cultures of rat pituitary cells; assay: In vitro inhibition of GHRH induced GH secretion (GH vitro +GHRH); type: cell-based
SS1 = SS1 (Rattus norvegicus, UniProt P30680); assay: SS-1 binding (Bind SS1 D.H.)
[9] = biological target: T1, human sst2 receptor sub-type (Homo sapiens, UniProt P30874); assay: In vitro binding, human sst2 receptor sub-type (SSTR2); settings: Tables 8/9: Bind SSTR2 nM
T1 construct: host or cells: SRIF receptor expressing cell cultures (general statement only)
Procedure: The in vitro binding affinities for rat cortex SRIF receptors and the human sst2 receptor sub-type was assessed. Further the in vitro inhibition of the GHRH induced GH secretion in primary cultures of rat pituitary cells as well as the in vivo inhibition of GH secretion in the rat after systemic or enteral application was studied. […] Therefore, the in vivo activities of the compounds in rats with respect to inhibition of growth hormone release was also assessed. Most compounds selected were tested by enteral—intraduodenal (i.d.) application. For determination of the absolute activity and for the calculation of an enteral bioavailability, single subcutaneous (s.c.) application of intravenous (i.v.) infusion was used.

T1 sequence (P30874 whole entry): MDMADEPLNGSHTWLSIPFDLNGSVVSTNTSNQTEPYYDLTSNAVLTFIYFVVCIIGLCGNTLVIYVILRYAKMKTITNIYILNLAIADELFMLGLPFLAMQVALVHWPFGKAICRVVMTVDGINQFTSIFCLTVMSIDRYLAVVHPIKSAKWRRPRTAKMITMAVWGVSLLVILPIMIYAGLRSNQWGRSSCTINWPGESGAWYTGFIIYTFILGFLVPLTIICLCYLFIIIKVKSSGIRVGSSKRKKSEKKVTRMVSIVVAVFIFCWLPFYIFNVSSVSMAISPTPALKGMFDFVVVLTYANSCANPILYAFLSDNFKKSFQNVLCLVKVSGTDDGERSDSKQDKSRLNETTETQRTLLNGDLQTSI
Sequence of SS1 (P30680 whole entry): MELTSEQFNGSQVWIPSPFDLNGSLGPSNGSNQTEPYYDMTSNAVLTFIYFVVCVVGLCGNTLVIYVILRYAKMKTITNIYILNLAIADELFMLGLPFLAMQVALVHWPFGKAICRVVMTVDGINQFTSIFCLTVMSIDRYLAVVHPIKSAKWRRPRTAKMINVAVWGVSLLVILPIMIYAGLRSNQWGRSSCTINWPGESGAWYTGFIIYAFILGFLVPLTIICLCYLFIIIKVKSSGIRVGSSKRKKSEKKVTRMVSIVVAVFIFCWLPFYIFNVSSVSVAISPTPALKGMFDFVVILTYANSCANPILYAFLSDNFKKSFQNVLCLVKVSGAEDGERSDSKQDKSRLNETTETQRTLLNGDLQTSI

Structure (SMILES)	GH vivo s.c. 1 h ID50 (GH secretion [1]) [µg/kg]	GH vivo i.d. 1 h ID50 (GH secretion [2])	enteral ID50 (GH secretion) (GH secretion [2]) [µg/kg]	INFUS. + GHRH ID50 MEAN [3] [µg/kg]	INFUS. + GHRH ID50 15′ ([3]; 15′ of infusion) [µg/kg]	INFUS. + GHRH ID50 30′ ([3]; 30′ of infusion) [µg/kg]	INFUS. + GHRH ID50 60′ ([3]; 60′ of infusion) [µg/kg]	GH vivo Inf + GHRH ID50 (mean of time points) [3] [µg/kg/h]	SUBCUTANEOUS + GHRH ID50 15′ [4] [µg/kg]	SUBCUTANEOUS + GHRH ID50 30′ [4] [µg/kg]	SUBCUTANEOUS + GHRH ID50 60′ [4] [µg/kg]	INTRADUODENAL + GHRH ID50 15′ [5] [µg/kg]	INTRADUODENAL + GHRH ID50 30′ [5] [µg/kg]	INTRADUODENAL + GHRH ID50 60′ [5] [µg/kg]	INTRADUODENAL + GHRH ID50 120′ [5] [µg/kg]	GH 1 H ID50 (GH secretion [7]) [µg/kg]	MEAN ID50 (GH and prolactin) (GH secretion [7]) [µg/kg]	PROLACT 1 H ID50 (prolactin secretion) [µg/kg]	IC50 [9] [nM]	further results
Cc1cccc2c(CC3C(=O)N(CCCCCN)C(=O)N3S(=O)(=O)c3ccc(Oc4ccc(O)c(Cl)c4)c(C(=O)N(C)C)c3)c[nH]c12 (racemic) [(+/−)-43]	3.79	3417 µg/kg	3400	3.72	6.44	3.58	2.24	3.72	7.05	7.95	11.35	1165	1646	1419	2872	3000	2324	1800	–	inhibition at 10 mg/kg (GH secretion [2]; intraduodenal, enteral administration of 10 mg/kg): 68%; SUBCUTANEOUS + GHRH ID50 120′ ([4]; 120′): 15.69 µg/kg; I.V. SINGLE INJECTION + GHRH ID50 15′ ([6]; 15′): 12.50 µg/kg; I.V. SINGLE INJECTION + GHRH ID50 30′ ([6]; 30′): 31.20 µg/kg; I.V. SINGLE INJECTION + GHRH ID50 60′ ([6]; 60′): 55.00 µg/kg; I.V. SINGLE INJECTION + GHRH ID50 120′ ([6]; 120′): 124.10 µg/kg; oral ID50 (GH) (GH secretion [7]; estradiol primed male rats): 3000 µg/kg; oral ID50 (prolactin) (prolactin secretion; estradiol primed male rats): 1800 µg/kg
C[C@H](N)C(=O)NCC(=O)N[C@H]1CSSC[C@@H](C(=O)O)NC(=O)[C@H](CO)NC(=O)[C@H]([C@@H](C)O)NC(=O)[C@H](Cc2ccccc2)NC(=O)[C@H]([C@@H](C)O)NC(=O)[C@H](CCCCN)NC(=O)[C@H](Cc2c[nH]c3ccccc23)NC(=O)[C@H](Cc2ccccc2)NC(=O)[C@H](Cc2ccccc2)NC(=O)[C@H](CC(N)=O)NC(=O)[C@H](CCCCN)NC1=O [SRIF14, somatostatin 14, reference compound]	–	–	–	3.90	6.00	3.35	2.90	–	–	–	–	–	–	–	–	–	–	–	–	–
C[C@@H](O)[C@@H]1NC(=O)[C@H](CCCCN)NC(=O)[C@@H](Cc2c[nH]c3ccccc23)NC(=O)[C@H](Cc2ccccc2)NC(=O)[C@@H](NC(=O)[C@H](N)Cc2ccccc2)CSSC[C@@H](C(=O)N[C@H](CO)[C@@H](C)O)NC1=O [Octreotride, Octreotide, reference compound]	0.13	125 µg/kg	–	0.12	0.16	0.11	0.10	–	0.15	0.15	0.26	24.2	16.6	26.8	82.0	440	663	998	–	IC50 [8]: 1.3 nM; GH, Ur Inf15′ +GHRH ([3]; Tables 8/9, urethane, 15′ of infusion): 0.124 µg/kg/h; GH, UR Inf30′ +GHRH ([3]; Tables 8/9, urethane, 30′ of infusion): 0.082 µg/kg/h; GH, UR Inf60′ +GHRH ([3]; Tables 8/9, urethane, 60′ of infusion): 0.085 µg/kg/h; GH vivo Inf + GHRH ID50 (mean of time points) ([3]; listed as Octreotride ac): 0.12 µg/kg/h and 0.096 µg/kg/h; GH vivo Inf + GHRH ID50 (mean of time points) ([3]; listed as octreotride ac): 0.096 µg/kg/h; Bind SS1 D.H. (SS1): 0.30 nM
Cc1cccc2c(CC3C(=O)N(CCCCC(C)(C)N)C(=O)N3S(=O)(=O)c3ccc(Oc4ccc(O)c(Cl)c4)c(C(=O)N(C)C)c3)c[nH]c12 (stereo not drawn) [Compound 47]	10.00	˜454 μg/kg	500	–	–	–	–	8.10	–	–	–	–	–	–	–	–	–	–	0.38	enteral bioavailability (from ID50 ratio) (GH secretion [2]; intraduodenal 1 hour vs parenteral ID50): 1.8%; bioavailability calculated in the GHRH stimulated enteral model [5]: 0.3%; enteral ID50 after repeated stimulation of the GH secretion by GHRH ([5]; 1 hour): ~2600 µg/kg
CN(C)C(=O)c1cc(S(=O)(=O)N2C(=O)N(CCCCCN)C(=O)C2Cc2c[nH]c3ccccc23)ccc1Oc1ccc(OC(=O)C(N)CCCCN)c(Cl)c1 (stereo not drawn) [Compound 48]	–	> 15000 µg/kg	–	–	–	–	–	32.00	–	–	–	–	–	–	–	11000	9950	9000	2.5	GH inhibition by the enteral route (GH secretion [2]; 10 mg/kg enteral): exhibited inhibition
Cc1cccc2c(CC3C(=O)N(CCCCCN)C(=O)N3S(=O)(=O)c3ccc(Oc4ccc(O)c(Cl)c4)c(C(=O)N(C)C)c3)c[nH]c12 (single isomer, unassigned; (+)) [(+)-43]	3.0	4800 µg/kg	–	1.68	2.28	1.54	1.35	1.68	–	–	–	–	–	–	–	–	–	–	0.18	GH vivo s.c. 1 h ID50 (GH secretion [1]; listed as (+)−43): 3.00 µg/kg; GH vivo s.c. 1 h ID50 (GH secretion [1]; listed as (+)−43 ch): 3.00 µg/kg
